Read-outs that look alike come from different tables or passages of the source.
Legend:
Type in all cases: in vivo
[1] = tested on: foot mucosa of slugs (species Arion); test: Slug mucosal toxicity test, Example 1 (15 min daily treatment, five days); details: for % WL, reduction in weight (weight loss) caused by the 15 minute treatment as % of initial body weight of the day / % MP, mucus production as % of the body weight at the start of the day before the treatment: 1% w/v in PBS; for % MP, mucus production as % of the body weight at the start of the day before the treatment / ALP released into PBS / LDH released into PBS / Protein released into PBS: 15 min; for ALP released into PBS / LDH released into PBS / Protein released into PBS: total mean of 7 samples/day per slug
Excerpt: Initially, the slugs are kept on a culture under controlled conditions of temperature and humidity until they have reached a stable body weight. The purpose of achieving a stable body weight is to improve the reproducibility of the results, particularly as the release of substances from the slugs may conveniently be measured in terms of the body weight thereof. The slugs are then isolated from the culture and placed in a vented plastic box lined with moist paper towel and placed at 95% relative humidity at 20° C. seven days before the start of an experiment. The slugs were not bred in any particular way, i.e. they were wild slugs. It is anticipated that even more accurate and reproducible results can be obtained by selective breeding of the slugs, although as shown by the test results this is not a necessary requirement of the present invention to obtain accurate and useful data.
The test procedure is simple and rapid. The chemical substance to be tested is applied directly to the mucosal membrane of a slug, e.g. to the foot, by placing the slug individually in a petri dish containing the test substance. Slugs treated with phosphate buffered saline are used as a negative control. As a positive control slugs treated with a known toxic substance, benzalkonium chloride, were used.
Because the mucosal epithelium of interest is located at the outside of the slug the effect of substances can be easily observed. […] This can also be simply measured by weighing the petri dish before and after the treatment of the slugs with the chemical substance (with the slugs removed in each case). Additionally an indirect response to epithelial damage caused by a chemical substance may be determined by the reduction of the body weight of the slugs due to the leakage of haemolymphatic fluids through the damaged foot surface.
After the treatment the slugs are transferred individually to a fresh petri dish containing phosphate buffered saline. After a suitable exposure time, e.g. 1 hour the phosphate buffered saline is collected and analysed for the presence of proteins and/or enzymes, e.g. lactate dehydrogenase and/or alkaline phosphatase, or other marker substances released from the foot or epithelium of the slug, for example membrane associated components such as phospholipids or cholesterol. This procedure can be repeated after periods of several hours in order to determine the reversibility of the cell damage caused by the test chemical substance. The concentration or amount of the chemical substance to be tested can be changed and the influence of the concentration can be easily examined. The exposure time can also be changed if required. The slugs can be treated during several successive days in order to investigate the subchronical effect of substances on the foot mucosa.
Seven days before the start of the experiment the slugs were isolated in a plastic box lined with moist paper towel and placed at 95% relative humidity at 20° C. As test substances didecanyol-L-α-phosphatidylcholine (DDPC) and sodium deoxycholate (SDC) were selected. Benzalkonium chloride (1% w/v), SDC (1% w/v) and DDPC (1%, w/v) were prepared in phosphate buffered saline (PBS, pH 7.4). […] During the test the slugs are preferably kept in a generally calm and normal state and are not subjected to mechanical vibrations or mechanical or electrical disturbances which may affect mucus production.
The enzymes (lactate dehydrogenase (LDH) and alkaline phosphatase (ALP)) and total protein released into the PBS were determined. The slugs were weighed before and after the incubation period to determine the body weight changes. The mucus production was measured by weighing the petri dishes before and after the treatment with a test substance. The results are shown in Table 1 and shown graphically in FIGS. 1 to 5.

[2] = tested on: foot mucosa of slugs of species Limax; details: Limax; for % MP, mucus production as % of the body weight at the start of the day before the treatment: 1% w/v (HPβCD 5% w/v) in PBS, 15 min; for ALP released into PBS / LDH released into PBS / Protein released into PBS: 1% w/v (HPβCD 5% w/v), total mean of 7 samples/day per slug
Protocol: Slugs of the species Limax are terrestial slugs have lungs and also a small internal shell. As test substances hydroxypropyl-β-cyclodextrin (HPβCD), sodium tauro-24,25-dihdrofiisidate (STDHF) and sodium deoxycholate were selected. Benzalkonium chloride (1% w/v), HPβCD (5% w/v), STDHF (1% w/v) and SDC (1% w/v) were prepared in phosphate buffered saline (PBS, pH 7.4).
The enzymes lactate dehydrogenase (LDH) and alkaline phosphatase (ALP) and total protein released into the PBS were determined. The change in body weight and mucus production caused by the treatment were examined.

[3] = tested on: foot mucosa of slugs of species Arion; details: Arion

## sodium deoxycholate [SDC]
[1]; 1% w/v, 15 min daily, five days
  membrane damage (in words): severe membrane damage
[1]; day 1
  % WL, reduction in weight (weight loss) caused by the 15 minute treatment as % of initial body weight of the day: 12.73%
  % MP, mucus production as % of the body weight at the start of the day before the treatment: 7.6%
[1]; day 1, 1% w/v
  ALP released into PBS: 13.49 U/L
  LDH released into PBS: 14.07 U/L
  Protein released into PBS: 19.92 μg/30 μL
[1]; day 2
  % WL, reduction in weight (weight loss) caused by the 15 minute treatment as % of initial body weight of the day: 12.60%
  % MP, mucus production as % of the body weight at the start of the day before the treatment: 10.7%
[1]; day 2, 1% w/v
  ALP released into PBS: 43.02 U/L
  LDH released into PBS: 93.01 U/L
  Protein released into PBS: 22.84 μg/30 μL
[1]; day 3
  % WL, reduction in weight (weight loss) caused by the 15 minute treatment as % of initial body weight of the day: 8.06%
  % MP, mucus production as % of the body weight at the start of the day before the treatment: 5.5%
[1]; day 3, 1% w/v
  ALP released into PBS: 103.56 U/L
  LDH released into PBS: 135.93 U/L
  Protein released into PBS: 38.95 μg/30 μL
[1]; day 4
  % WL, reduction in weight (weight loss) caused by the 15 minute treatment as % of initial body weight of the day: 11.28%
  % MP, mucus production as % of the body weight at the start of the day before the treatment: 7.6%
[1]; day 4, 1% w/v
  ALP released into PBS: 42.22 U/L
  LDH released into PBS: 146.89 U/L
  Protein released into PBS: 54.76 μg/30 μL
[1]; day 5
  % WL, reduction in weight (weight loss) caused by the 15 minute treatment as % of initial body weight of the day: 8.03%
  % MP, mucus production as % of the body weight at the start of the day before the treatment: 2.6%
[1]; day 5, 1% w/v
  ALP released into PBS: 22.98 U/L
  LDH released into PBS: 136.19 U/L
  Protein released into PBS: 55.59 μg/30 μL
[2]
  ranking order of increasing toxicity: PBS, 5% HPβCD<1% STDHF<1% SDC and 1% BAC
[2]; 1% w/v
  membrane damage (in words): severe membrane damage
[2]; 1% w/v, five days
  reduction in body weight to % of the initial weight: about 50%
[2]; day 1
  % MP, mucus production as % of the body weight at the start of the day before the treatment: 11.16%
  ALP released into PBS: 11.62 U/L
  LDH released into PBS: 9.01 U/L
  Protein released into PBS: 10.1 μg/30μL
[2]; day 2
  % MP, mucus production as % of the body weight at the start of the day before the treatment: 10.27%
  ALP released into PBS: 3.34 U/L
  LDH released into PBS: 13.6 U/L
  Protein released into PBS: 15.78 μg/30μL
[2]; day 3
  % MP, mucus production as % of the body weight at the start of the day before the treatment: 13.01%
  ALP released into PBS: 2.62 U/L
  LDH released into PBS: 26.15 U/L
  Protein released into PBS: 18.04 μg/30μL
[2]; day 4
  % MP, mucus production as % of the body weight at the start of the day before the treatment: 19.38%
  ALP released into PBS: 6.24 U/L
  LDH released into PBS: 85.8 U/L
  Protein released into PBS: 35.04 μg/30μL
[2]; day 5
  % MP, mucus production as % of the body weight at the start of the day before the treatment: 8.11%
  ALP released into PBS: 28.79 U/L
  LDH released into PBS: 145.71 U/L
  Protein released into PBS: 88.14 μg/30μL
[3]
  ranking order of increasing toxicity: PBS, 5% HPβCD<1% STDHF<1% SDC and 1% BAC
[3]; 1% w/v (SDC data in Table 1, Example 1)
  membrane damage (in words): severe membrane damage
[3]; 1% w/v, five days (SDC data from Example 1)
  reduction in body weight to % of the initial weight: about 50%
